According to patent US6545127B1, “Catalytically active recombinant memapsin and methods of use thereof” (Oklahoma Medical Research Foundation, priority 1999, dated 2003):
Non-standard residues stand in square brackets, D forms with d. Residues, ends and D or L forms follow the SMILES beside them. No end group written: not given here. *: point of attachment. Sta = CC(C)C[C@H](N)[C@@H](O)CC(=O)O; Isovaleryl = CC(C)CC(=O)*

Legend:
M2pd [1] = target: T1, M2pd (Homo sapiens, UniProt P56817); assay: Steady-state kinetics of hydrolysis of peptide substrates by M2pd; assay type: biochemical; conditions: peptide substrate hydrolysed by M2pd, pH 4.0
T1 construct: 15 N-terminal residues from vector pET11a (T7 protein leader) (N, cleaved yes); made in house
T1 sequence (P56817 14-419 limits assumed): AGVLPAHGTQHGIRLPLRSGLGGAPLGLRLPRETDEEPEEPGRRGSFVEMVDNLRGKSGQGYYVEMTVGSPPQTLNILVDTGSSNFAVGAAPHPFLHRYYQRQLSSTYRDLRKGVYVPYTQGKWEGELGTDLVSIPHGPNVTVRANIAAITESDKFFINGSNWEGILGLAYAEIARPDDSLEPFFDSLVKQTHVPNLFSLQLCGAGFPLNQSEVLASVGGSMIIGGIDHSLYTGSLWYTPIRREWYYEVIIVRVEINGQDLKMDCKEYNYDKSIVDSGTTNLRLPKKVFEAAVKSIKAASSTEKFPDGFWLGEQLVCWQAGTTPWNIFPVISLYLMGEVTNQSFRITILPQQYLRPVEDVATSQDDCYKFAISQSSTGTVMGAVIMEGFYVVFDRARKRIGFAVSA
Protocol: Incubation in 0.1M sodium acetate, pH 4.0, for 16 h at 22° C. auto-catalytically converted pro-M2pd to M2pd . For initial hydrolysis tests, two synthetic peptides were separately incubated with pro-M2pd in 0.1M Na acetate, pH 4.0 for different periods ranging from 2 to 18 h. The incubated samples were subjected to LC/MS for the identification of the hydrolytic products. For kinetic studies, the identified HPLC (Beckman System Gold) product peaks were integrated for quantitation. The Km and kcat values for presenilin 1 and Swedish APP peptides (Table 1) were measured by steady-state kinetics. The individual Km and Kcat values for APP peptide could not be measured accurately by standard methods, so its kcat/Km value was measured by competitive hydrolysis of mixed substrates against presenilin 1 peptide (Fersht, A. “Enzyme Structure and Mechanism”, 2nd Ed., W. H. Freeman and Company, New York. (1985)).

recombinant memapsin 2 [2] = target: T2, recombinant memapsin 2 (Homo sapiens, UniProt P56817); assay: Value; parameters: expressed in E. coli in two different lengths, both without the transmembrane region; 15 N-terminal residues from vector pET11a (T7 protein leader) (N); made in house; host or cells: E. coli BL21 (DE3)
Protocol: Table printed on a drawing sheet, FIG. 4A
Footnotes: [Mep2] = 0.47 µM / [Fluo. Substrate] = 29.9 µM / Buffer: Na Acetate 0.1 M, 5% DMSO, pH 4.5 at 37°C / Excitation at 350 nm / Emission at 490 nm
The patent's description of the figure: FIG. 4A is a graph of the inhibition of recombinant memapsin 2 by OM99-1.
First copying reader's note: Fit parameter (Ki) of the inhibition curve of memapsin 2 by OM99-1 plotted above the table; no unit is printed for Ki, and the plot's concentration axis is in M.
Where the first naming reader finds the target: description_of_the_figure: FIG. 4A is a graph of the inhibition of recombinant memapsin 2 by OM99-1.
Target sequence in this assay (P56817 46-457): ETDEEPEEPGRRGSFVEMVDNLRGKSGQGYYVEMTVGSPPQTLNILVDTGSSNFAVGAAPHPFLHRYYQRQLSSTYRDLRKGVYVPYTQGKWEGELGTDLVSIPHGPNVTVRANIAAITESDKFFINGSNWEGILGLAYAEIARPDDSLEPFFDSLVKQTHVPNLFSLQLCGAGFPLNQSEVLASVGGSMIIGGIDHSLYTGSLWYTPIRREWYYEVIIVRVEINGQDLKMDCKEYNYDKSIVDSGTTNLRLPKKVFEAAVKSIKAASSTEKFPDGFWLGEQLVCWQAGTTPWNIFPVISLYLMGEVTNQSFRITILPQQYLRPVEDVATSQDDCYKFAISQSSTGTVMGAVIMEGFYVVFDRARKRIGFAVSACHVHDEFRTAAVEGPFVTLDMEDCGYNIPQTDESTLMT

recombinant memapsin 2 [3] = target: T2, recombinant memapsin 2; assay: Inhibition of recombinant memapsin 2, synthetic fluorogenic peptide substrate; assay type: biochemical; conditions: recombinant memapsin 2, synthetic fluorogenic peptide substrate (FIG. 4A/4B)
Target sequence in this assay (P56817 46-457 limits assumed): as the sequence (P56817 46-457) above
From the text: The substrate used was a synthetic fluorogenic peptide substrate.

[4] = test system: memapsin 2 (M2) cleavage of APP in HeLa cells; assay: APP beta-secretase site cleavage in HeLa cells co-transfected with APP and M2 (pulse-chase, immunoprecipitation, SDS-PAGE); assay type: cell-based, human; conditions: HeLa cells co-transfected with APP and M2, inhibitor included in the media
M2pd [5] = target: T1, M2pd; assay: Inhibition of M2pd by pepstatin A; assay type: biochemical

**Q.** Which Km (M2pd [1]) does the source give for “SVNM/AEGD (SVNMAEGD) [presenilin 1, substrate peptide derived from the processing site of presenilin 1]” here?
**A.** 15.2 mM

**Q.** What about the kcat (M2pd [1]) of the same compound?
**A.** 0.67 s⁻¹

**Q.** Which Km (M2pd [1]) does the source give for “SEVNLDAEFR [Swedish APP peptide, SEVNL/DAEFR]” here?
**A.** 1 mM

**Q.** How did the Ki (recombinant memapsin 2 [2]) turn out when `CC(C)C[C@H](NC(=O)[C@H](CC(N)=O)NC(=O)[C@@H](N)C(C)C)[C@@H](O)C[C@@H](C)C(=O)N[C@@H](C)C(=O)N[C@@H](CCC(=O)O)C(=O)N[C@@H](Cc1ccccc1)C(=O)O` [OM99-1, Val-Asn-Leu*Ala-Ala-Glu-Phe] (HELM PEPTIDE1{V.N.[CC(C)C[C@H](N[*:1])[C@@H](O)C[C@@H](C)C(=O)[*:2]].A.E.F}$$$$V2.0) was run?
**A.** 68.4 nM

**Q.** And the Ki (recombinant memapsin 2 [3])?
**A.** 30 nM

**Q.** With `CO/C1=C\C(C)=C\[C@@H](C)[C@@H](O)[C@@H](C)C/C(C)=C/C=C/[C@H](OC)[C@@H]([C@@H](C)[C@@H](O)[C@H](C)[C@@]2(O)C[C@@H](O)[C@H](C)[C@@H](C(C)C)O2)OC1=O` [Bafilomycin A1] as the compound, how does the “production of APP beta N- and beta C-fragments” value [4] read?
**A.** abolished the production of both APP fragments

**Q.** For `CC(C)CC(=O)N[C@H](C(=O)N[C@H](C(=O)N[C@@H](CC(C)C)[C@@H](O)CC(=O)N[C@@H](C)C(=O)N[C@@H](CC(C)C)[C@@H](O)CC(=O)O)C(C)C)C(C)C` [Pepstatin A] (Isovaleryl-VV[Sta]A[Sta]-OH), which IC50 (M2pd [5]) is on record?
**A.** ~300000 nM
